Measured values as given in publication PMC10064984, “Anti-cyclooxygenase, anti-glycation, and anti-skin aging effect of Dendrobium officinale flowers’ aqueous extract and its phytochemical validation in aging” (Frontiers in Immunology, 2023).
Several values for one entry are separate records, joined by “and”; a condition that tells them apart may be missing. Identical values can stand only once. Each block holds one compound with its values, some of them ahead of it.

What was measured:
[1] = Fluorescent AGEs formation in a BSA-fructose/glucose system; format: biochemical; settings: mean ± SD, n = 3; read-out: BSA-glycation IC50
Method in brief: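 BSA glycated in vitro with D-glucose and D-fructose while test samples, dissolved in DMSO:water (1:4), were present. Percent inhibition of fluorescent AGE formation calculated from fluorescence corrected for sample-only and BSA-free blanks; triplicate.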

[2] = Online UPLC-PDA-MS-ABTS·+ scavenging (postcolumn derivatisation); settings: within DOF extract
Procedure: Online identification of antioxidant components of DOF extract was performed using a UPLC system (Milford, MA, USA) consisting of a Waters photodiode array detector and a Waters postcolumn derivatisation system supplying fresh ABTS solution (UPLC-PDA-QDa-ABTS). […] The detection wavelengths were set at 280 and 734 nm, and the injection volume of the sample was 10 μl.
To detect radical scavengers, the UPLC system was coupled with a Waters pump, which supplied freshly prepared ABTS·+ solution into a reaction coil (15 m, 0.25 mm ID) with a flow rate of 0.2 ml/min at 37°C. Negative peaks were recorded based on a decrease of absorbance at 729 nm after the reaction of individual compounds with the ABTS·+ radical. For preliminary identification of compounds, a Waters Acquity QDa mass detector in negative ionisation mode was connected in series to PDA with the following parameters: electrospray ion source; cone voltage, 15 V; atomiser, N2; and scanning range, 100–800 m/z.

COX-2 = target: T1, COX-2 (Homo sapiens, UniProt P35354); assay: Anti-COX-2 assay (COX-2 Inhibitor Screening Kit); format: biochemical
T1 construct: purchased Beyotime S0168
T1 sequence (P35354 18-604): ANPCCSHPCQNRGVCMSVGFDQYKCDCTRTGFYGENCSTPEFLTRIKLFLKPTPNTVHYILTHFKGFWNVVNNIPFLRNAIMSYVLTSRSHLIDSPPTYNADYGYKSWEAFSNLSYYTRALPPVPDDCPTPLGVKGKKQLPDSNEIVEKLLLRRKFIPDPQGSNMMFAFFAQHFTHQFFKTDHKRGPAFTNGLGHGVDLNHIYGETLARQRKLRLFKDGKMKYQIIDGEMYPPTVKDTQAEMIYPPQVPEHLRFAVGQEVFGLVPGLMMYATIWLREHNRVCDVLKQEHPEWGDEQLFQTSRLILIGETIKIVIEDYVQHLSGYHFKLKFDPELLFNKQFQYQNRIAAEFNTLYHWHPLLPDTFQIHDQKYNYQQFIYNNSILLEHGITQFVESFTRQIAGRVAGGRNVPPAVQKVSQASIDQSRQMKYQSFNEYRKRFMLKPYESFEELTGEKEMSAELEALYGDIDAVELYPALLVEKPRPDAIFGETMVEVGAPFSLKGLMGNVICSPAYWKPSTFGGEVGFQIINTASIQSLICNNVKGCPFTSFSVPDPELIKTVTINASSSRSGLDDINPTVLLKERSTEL

[3] = ABTS·+ decolourisation capacity; format: biochemical; settings: for ABTS scavenging rate: 0.5mM series, replicate wells, listed as T15; for IC50: mean ± SD, n = 3
Method in brief: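 ABTS·+ working solution in 0.2 M phosphate buffer, pH 7.4, was adjusted to A729 0.8 ± 0.05, and 100 μl was mixed with 200 μl sample; absorbance was read at 729 nm after 10 min, in triplicate. Inhibition was taken relative to a phosphate-buffer control, and IC50 was obtained graphically from dose-inhibition curves.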

[4] = FRAP total antioxidant capacity; format: biochemical; settings: lower part of sheet (compound series);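 also: colourimetric FRAP kit assay read as absorbance in 96-well plates, values as mM FeSO4 via standard curve, EC1 being sample concentration matching 1.0 mmol/L FeSO4, Trolox positive control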
DPPH· scavenging = format: biochemical; settings: mean ± SD, n = 3

IC50 [1]: 213 ± 10.4 µM
COX-2 inhibition (in words) (COX-2): great COX-2 inhibition
COX-2 inhibition (COX-2; 3.125 μM, single replicates, listed as T15, 3.125 µM): -5.79% and 0.13% and 6.24%
COX-2 inhibition (COX-2; 6.25 μM, single replicates, listed as T15, 6.25 µM): 11.89% and 39.51% and 35.72%
inhibition at 12.5 µM (COX-2; 12.5 μM, single replicates): 41.8%
COX-2 inhibition (COX-2; 12.5 μM, single replicates, listed as T15, 12.5 µM): 53.29% and 49.38%
inhibition at 25 µM (COX-2; 25 μM, single replicates): 67.1%
COX-2 inhibition (COX-2; 25 μM, single replicates, listed as T15, 25 µM): 72.74% and 74.72%
inhibition at 50 µM (COX-2; 50 μM, single replicates): 78.9%
COX-2 inhibition (COX-2; 50 μM, single replicates, listed as T15, 50 µM): 78.06% and 79.70%
inhibition at 100 µM (COX-2; 100 μM, single replicates): 77.2%
COX-2 inhibition (COX-2; 100 μM, single replicates, listed as T15, 100 µM): 81.94% and 80.44%
inhibition at 200 µM (COX-2; 200 μM, single replicates): 79.2%
COX-2 inhibition (COX-2; 200 μM, single replicates, listed as T15, 200 µM): 82.29% and 79.96%
IC50 [3]: 10.67 ± 0.03 µM
Structure (SMILES): O=c1c(O[C@@H]2O[C@H](CO)[C@@H](O)[C@H](O)[C@H]2O)c(-c2ccc(O)c(O)c2)oc2cc(O)cc(O)c12 [compound 25, Isoquercitrin]
online ABTS radical scavenging (size of negative peaks at 734 nm) [2]: strongest ABTS radical scavengers
ABTS scavenging rate ([3]; concentration 7.8125 (unit not given)): 37.41% and 37.49% and 37.14%
ABTS scavenging rate ([3]; concentration 15.625 (unit not given)): 63.25% and 62.99% and 62.91%
ABTS scavenging rate ([3]; concentration 31.25 (unit not given)): 95.51% and 95.22% and 96.00%
ABTS scavenging rate ([3]; concentration 62.5 (unit not given)): 99.23% and 99.50% and 99.53%
ABTS scavenging rate ([3]; concentration 125 (unit not given)): 99.63% and 99.58% and 99.53%
ABTS scavenging rate ([3]; concentration 250 (unit not given)): 99.04% and 98.96% and 98.89%
ABTS scavenging rate ([3]; concentration 500 (unit not given)): 99.05% (2×) and 99.02%
FRAP EC1 [4]: 520.2 ± 17.9 µM

IC50 [1]: 258 ± 7.56 µM
COX-2 inhibition (in words) (COX-2): no inhibitory effects
inhibition at 31.25 µM (COX-2; 31.25 μM, single replicates): 30%
COX-2 inhibition (COX-2; 31.25 μM, single replicates, listed as T7, 31.25 µM): 20.65% and 19.20%
COX-2 inhibition (COX-2; 62.5 μM, single replicates, listed as T7, 62.5 µM): -16.69% and -16.14% and 33.41%
COX-2 inhibition (COX-2; 125 μM, single replicates, listed as T7, 125 µM): -28.47% and -18.44% and 17.41%
COX-2 inhibition (COX-2; 250 μM, single replicates, listed as T7, 250 µM): -29.84% and -23.37% and -7.75%
COX-2 inhibition (COX-2; 500 μM, single replicates, listed as T7, 500 µM): -24.98% and -23.56% and -9.18%
COX-2 inhibition (COX-2; 1000 μM, single replicates, listed as T7, 1000 µM): -59.66% and -32.74% and -11.22%
COX-2 inhibition (COX-2; 2000 μM (2mM), single replicates, listed as T7): -38.84% and -31.81% and -15.79%
IC50 [3]: 74.41 ± 0.69 µM
IC50 (DPPH· scavenging): > 5000 µM
Structure (SMILES): O=c1cc(-c2ccc(O)cc2)oc2c(C3OC(CO)C(O)C(O)C3O)c(O)c(C3OC(CO)C(O)C(O)C3O)c(O)c12 (centres unmarked) [compound 10, Vicenin-2]
online ABTS radical scavenging (size of negative peaks at 734 nm) [2]: strongest ABTS radical scavengers
FRAP EC1 [4]: >5000 µM
